Key:
[1] = target: receptors; details: panel of receptors; cited from earlier work
[2] = system: kinases; details: panel of kinases; cited from earlier work
[3] = target: β1 site of the 20S proteasome (Homo sapiens, UniProt P28072); details: at higher concentrations; cited from earlier work
[4] = target: β2 site of the 20S proteasome (Homo sapiens, UniProt Q99436); details: at higher concentrations; cited from earlier work
[5] = Chemical stability assessment, 60/75 stress test, HPLC; type: physicochemical
Description: The chemical stability assessment was performed on crystalline Pattern B using a 60/75 stress test (The International Conference on Harmonisation of Technical Requirements for Registration of Pharmaceuticals for Human Use, Stability Testing of New Drug Substances and Products, Q1A(R2), 2003). Samples were exposed to 60° C./75% relative humidity condition for 2 weeks and post-stress materials were analyzed by HPLC. Data at time-zero was also collected for all samples and served as references. The following table summarizes stability data obtained (peak area % measured by HPLC) for crystalline Pattern B.

Row | Compound | IC50 [1] [µM] | IC50 [2] [µM] | inhibition of the activity of the β1 site [3] | inhibition of the activity of the β2 site [4] | % at 1 wk (peak area % measured by HPLC) ([5]; 60° C./75% relative humidity, 1 wk) [%] | % at 2 wk (peak area % measured by HPLC) ([5]; 60° C./75% relative humidity, 2 wk) [%] | % at t0 (peak area % measured by HPLC) ([5]; time-zero reference) [%]
1 | CC(C)C[C@H](NC(=O)CNC(=O)c1cc(Cl)ccc1Cl)B(O)O [Ixazomib, [(1R)-1-({[(2,5-dichlorobenzoyl)amino]acetyl}amino)-3-methylbutyl]boronic acid] | > 10 | > 10 | inhibits the activity | inhibits the activity | – | – | –
2 | CC(C)C[C@H](NC(=O)CNC(=O)c1cc(Cl)ccc1Cl)B1OB([C@H](CC(C)C)NC(=O)CNC(=O)c2cc(Cl)ccc2Cl)OB([C@H](CC(C)C)NC(=O)CNC(=O)c2cc(Cl)ccc2Cl)O1 [Crystalline Pattern B, N,N′,N″-[2,4,6-boroxintriyltris[[(1R)-3-methylbutylidene]imino(2-oxo-2,1-ethanediyl)]]tris(2,5-dichlorobenzamide)] | – | – | – | – | 94.2 | 79.5 | 99.3

Reference: US10072029B2, “Crystalline form of a proteasome inhibitor” (Millennium Pharmaceuticals, Inc., priority 2015, dated 2018)
